In general, IC50 refers to the concentration that gives 50% inhibition. Low values mean higher potency, high ones lower potency.

Consider 15 compounds from patent publication US20260078135A1, “POLYCYCLIC QUINAZOLINES FOR INHIBITION OF ERBB2” (Enliven Inc., priority 2022, published 2026).

One test has as its target Ba/F3 ERBB2 YVMA (Homo sapiens, UniProt P04626, DUP772-775, cells depend on it). The test is described as follows: Cell viability assay (CellTiter Glo), Ba/F3 cells engineered to express ERBB2 YVMA. To be noted: Ba/F3 cells expressing human ERBB2 YVMA mutant, 72 hours, read-out: Ba/F3 ERBB2 YVMA, IC50. In kind it is cell-based, mouse. The method, then:
Cells were treated with compounds, and cell viability was measured as a metric of kinase inhibition.
BT-474, A431, MDA-MB-175VII, NCI-H1781, MCF7, and Ba/F3 cell lines were tested. The Ba/F3 cell line is IL-3-dependent mouse cell line derived from the C3H mouse strain. Ba/F3 cell lines were engineered to express human ERBB2 or EGFR kinases, rendering the cells IL-3 independent. The lines were generated via retroviral transduction utilizing a Moloney murine leukemia virus (MMLV) promoter, and constructs are stably integrated into the cell genome. The sequences of the ERBB2 and EGFR genes used were NCBI Reference Sequences NM_004448.3 and NM_005228.3, respectively.
BT-474, A431, MDA-MB-175VII, NCI-H1781 and MCF7 cells were grown in the appropriate growth medium as described in Table B2 below, and harvested at 50-80% confluence. BT-474, A431, MDA-MB-175VII, NCI-H1781 and MCF7 cells were counted and seeded at 2,000 or 1,500 cells per well in 384-well tissue culture plates (see Table B2). Similarly, Ba/F3 cell lines engineered to express EGFR, ERBB2, or ERBB2 mutants were grown, harvested, counted and seeded at 3000 cells per well in 96-well plates. A subset of wells contained media only (low control, “LC”).
Table B1 provides the growth media and number of cells seeded per well for the each cell line.
Compounds were dissolved in DMSO and serially diluted. Serially-diluted compound or a DMSO only control (high control, “HC”) was added to the plated cells in each well. Compounds were tested at concentrations of about 10 μM to 0.51 nM, using three-fold dilutions. The final proportion of DMSO never exceeded 0.1%.
Plates were placed in a 37° C., 5% CO2 incubator for 72 hours. Plates were then removed from the incubator and equilibrated for 15 minutes at room temperature. 40 μl of CellTiter Glo reagent (Promega) was added to measure the relative level of metabolically active cells by quantifying intracellular ATP concentrations. Plates were incubated for 30 minutes at room temperature, and luminescence was measured. Percent viability was normalized to a vehicle control only using the following formula: % viability=100×(Lumsample−LumLC)/(LumHC−LumLC). Graphical curves were fitted using a nonlinear regression model with a sigmoidal dose response.
(In general: ATP-based viability assays read luminescence as a measure of living cells.)

The target of test [1] is T1, phosphorylated ERBB2 (pERBB2) (Homo sapiens, UniProt P04626).
T1 construct: endogenous in cells; host or cells: BT-474
T1 sequence (P04626 23-1255): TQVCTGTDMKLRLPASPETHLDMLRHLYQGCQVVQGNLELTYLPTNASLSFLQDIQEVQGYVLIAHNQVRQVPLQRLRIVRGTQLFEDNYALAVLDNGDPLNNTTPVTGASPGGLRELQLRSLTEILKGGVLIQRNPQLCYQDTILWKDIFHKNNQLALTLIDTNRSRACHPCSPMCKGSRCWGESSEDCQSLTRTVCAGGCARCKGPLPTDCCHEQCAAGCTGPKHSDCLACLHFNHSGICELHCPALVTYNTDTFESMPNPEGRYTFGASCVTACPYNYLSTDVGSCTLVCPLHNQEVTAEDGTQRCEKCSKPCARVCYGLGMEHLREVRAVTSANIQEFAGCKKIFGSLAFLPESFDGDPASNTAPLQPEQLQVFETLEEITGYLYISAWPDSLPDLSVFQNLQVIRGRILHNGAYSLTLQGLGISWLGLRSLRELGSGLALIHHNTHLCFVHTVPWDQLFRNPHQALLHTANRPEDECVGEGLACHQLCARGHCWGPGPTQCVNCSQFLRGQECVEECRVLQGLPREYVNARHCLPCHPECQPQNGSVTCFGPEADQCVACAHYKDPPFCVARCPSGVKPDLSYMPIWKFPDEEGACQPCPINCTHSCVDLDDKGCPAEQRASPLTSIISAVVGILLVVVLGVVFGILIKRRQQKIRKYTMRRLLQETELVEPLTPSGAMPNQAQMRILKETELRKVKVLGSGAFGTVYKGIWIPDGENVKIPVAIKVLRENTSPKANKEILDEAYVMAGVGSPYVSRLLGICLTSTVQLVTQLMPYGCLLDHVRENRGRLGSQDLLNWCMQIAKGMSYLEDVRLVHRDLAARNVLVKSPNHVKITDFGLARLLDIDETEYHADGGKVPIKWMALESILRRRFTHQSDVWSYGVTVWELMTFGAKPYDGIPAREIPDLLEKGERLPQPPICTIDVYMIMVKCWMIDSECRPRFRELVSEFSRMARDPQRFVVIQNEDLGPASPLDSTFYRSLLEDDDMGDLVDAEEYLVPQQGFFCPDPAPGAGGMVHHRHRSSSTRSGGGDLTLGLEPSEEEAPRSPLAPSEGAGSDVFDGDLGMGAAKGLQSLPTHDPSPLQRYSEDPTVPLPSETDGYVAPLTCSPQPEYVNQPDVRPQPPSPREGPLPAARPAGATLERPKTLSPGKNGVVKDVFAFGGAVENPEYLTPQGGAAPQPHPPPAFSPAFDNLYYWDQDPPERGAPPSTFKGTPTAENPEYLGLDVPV
The test is described as follows: Detection of phosphorylated ERBB2 (pERBB2) by ELISA in BT-474 cells. The note with it: four hour incubation. Type of test: cell-based. Put shortly:
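BT-474 cells were treated with compounds (fourfold dilutions, 10 μM to 0.01 nM final) for 4 h at 37 °C, then lysed. pERBB2 in lysates was quantified by ELISA with an HRP anti-phosphotyrosine detection antibody and TMB read at 450 nm; % relative activity was normalized to no-cell and 0.1% DMSO controls.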

Test [2] addresses T2, phosphorylated EGFR (pEGFR) (Homo sapiens, UniProt P00533).
T2 construct: performed to measure phosphorylated EGFR levels using A431 cells (10% FBS); endogenous in cells; host or cells: A431
The test is described as follows: Detection of phosphorylated EGFR (pEGFR) by AlphaLISA in EGF-stimulated A431 cells. To be noted: A431 cells (10% FBS), 4 hours incubation, EGF 30 ng/mL for 10 minutes. In kind it is cell-based. The method, boiled down: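 A431 cells in 10% FBS were preincubated with compound for 4 h at 37 °C, then stimulated with 30 ng/mL EGF for 10 min and lysed. pEGFR read by AlphaLISA. % inhibition normalised to DMSO and staurosporine controls; IC50 from four-parameter curve fit.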

Ba/F3 ERBB2 YVMA, sequence (P04626 with tags, fused parts or gaps DUP772-775): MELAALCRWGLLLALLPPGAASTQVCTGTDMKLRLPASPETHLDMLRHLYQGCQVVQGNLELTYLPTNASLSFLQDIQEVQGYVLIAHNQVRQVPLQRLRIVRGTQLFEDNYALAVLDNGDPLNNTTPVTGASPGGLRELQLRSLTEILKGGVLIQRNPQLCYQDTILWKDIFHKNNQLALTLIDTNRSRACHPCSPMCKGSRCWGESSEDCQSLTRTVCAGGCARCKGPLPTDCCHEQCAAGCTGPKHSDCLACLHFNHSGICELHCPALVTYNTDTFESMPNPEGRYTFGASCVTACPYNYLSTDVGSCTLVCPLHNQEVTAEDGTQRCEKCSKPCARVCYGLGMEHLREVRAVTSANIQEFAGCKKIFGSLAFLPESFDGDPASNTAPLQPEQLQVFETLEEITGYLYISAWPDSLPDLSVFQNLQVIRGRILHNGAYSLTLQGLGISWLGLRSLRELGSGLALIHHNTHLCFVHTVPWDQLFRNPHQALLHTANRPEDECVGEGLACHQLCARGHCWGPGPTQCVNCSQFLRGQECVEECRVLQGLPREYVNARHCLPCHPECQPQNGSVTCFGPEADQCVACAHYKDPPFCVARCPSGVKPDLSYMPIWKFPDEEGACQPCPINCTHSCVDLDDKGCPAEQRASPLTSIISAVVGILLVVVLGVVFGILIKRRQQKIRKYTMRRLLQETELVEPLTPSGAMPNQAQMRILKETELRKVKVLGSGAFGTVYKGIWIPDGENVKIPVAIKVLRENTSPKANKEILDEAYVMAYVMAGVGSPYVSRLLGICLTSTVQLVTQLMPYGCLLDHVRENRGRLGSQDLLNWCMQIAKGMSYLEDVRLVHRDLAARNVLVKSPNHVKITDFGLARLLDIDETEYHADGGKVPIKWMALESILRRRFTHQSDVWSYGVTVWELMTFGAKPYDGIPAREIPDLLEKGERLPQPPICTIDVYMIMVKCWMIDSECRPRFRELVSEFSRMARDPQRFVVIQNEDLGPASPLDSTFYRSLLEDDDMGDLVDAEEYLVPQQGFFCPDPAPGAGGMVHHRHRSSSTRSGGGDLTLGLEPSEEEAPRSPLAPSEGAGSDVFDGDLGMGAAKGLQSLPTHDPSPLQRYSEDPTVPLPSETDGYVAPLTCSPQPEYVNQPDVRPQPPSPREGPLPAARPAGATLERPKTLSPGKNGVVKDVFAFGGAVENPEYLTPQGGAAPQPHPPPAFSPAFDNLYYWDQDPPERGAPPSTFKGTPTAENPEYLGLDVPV
T2 sequence (P00533 25-1210): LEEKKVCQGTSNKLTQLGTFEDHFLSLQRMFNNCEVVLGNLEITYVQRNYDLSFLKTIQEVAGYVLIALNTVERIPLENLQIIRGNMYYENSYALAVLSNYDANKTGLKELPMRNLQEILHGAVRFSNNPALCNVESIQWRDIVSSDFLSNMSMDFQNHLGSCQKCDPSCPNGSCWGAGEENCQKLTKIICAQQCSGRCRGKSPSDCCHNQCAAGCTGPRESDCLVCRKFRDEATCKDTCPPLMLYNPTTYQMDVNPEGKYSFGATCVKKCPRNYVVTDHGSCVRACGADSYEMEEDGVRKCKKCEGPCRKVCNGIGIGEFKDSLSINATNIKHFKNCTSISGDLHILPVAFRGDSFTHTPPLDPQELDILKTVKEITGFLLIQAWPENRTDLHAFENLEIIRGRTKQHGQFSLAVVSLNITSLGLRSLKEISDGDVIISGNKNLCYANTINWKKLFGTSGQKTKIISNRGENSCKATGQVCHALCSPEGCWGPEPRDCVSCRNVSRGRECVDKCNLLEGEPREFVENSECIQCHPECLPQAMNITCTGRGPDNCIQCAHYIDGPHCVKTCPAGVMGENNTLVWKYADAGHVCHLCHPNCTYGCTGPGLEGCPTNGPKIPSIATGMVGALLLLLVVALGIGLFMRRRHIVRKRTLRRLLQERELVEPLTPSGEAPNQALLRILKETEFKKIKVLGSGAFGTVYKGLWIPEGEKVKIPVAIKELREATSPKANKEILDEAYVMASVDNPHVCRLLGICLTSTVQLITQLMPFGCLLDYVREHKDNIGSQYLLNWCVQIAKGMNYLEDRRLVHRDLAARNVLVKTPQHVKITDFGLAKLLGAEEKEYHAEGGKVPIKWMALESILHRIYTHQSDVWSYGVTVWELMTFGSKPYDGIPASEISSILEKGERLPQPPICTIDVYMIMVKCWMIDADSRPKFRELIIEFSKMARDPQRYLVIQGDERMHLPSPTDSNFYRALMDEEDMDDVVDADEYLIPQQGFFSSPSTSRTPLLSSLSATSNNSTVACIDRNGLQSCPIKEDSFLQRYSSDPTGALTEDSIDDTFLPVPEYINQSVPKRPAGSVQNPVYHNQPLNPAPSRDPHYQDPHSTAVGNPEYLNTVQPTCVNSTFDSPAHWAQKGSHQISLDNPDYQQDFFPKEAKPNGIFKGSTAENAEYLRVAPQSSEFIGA

Consider `Cc1cc(Nc2ncnc3ccc4c(c23)O[C@@H]2CCN(C)C[C@H]2N4C)ccc1Oc1ccc2c(c1)ncn2C` (relative stereo) [Compound 124, trans-7,9-dimethyl-N-(3-methyl-4-((1-methyl-1H-benzo[d]imidazol-5-yl)oxy)phenyl)-7a,8,9,10,11,11a-hexahydro-7H-pyrido[3′,4′:5,6][1,4]oxazino[2,3-f]quinazolin-1-amine], for which the GI50 at Ba/F3 ERBB2 YVMA stood at 93.7 nM. The concentration for half-maximal inhibition (IC50) in test [1] is 63 nM; in test [2], > 10000 nM.

In the case of `Cc1cc(Nc2ncnc3ccc4c(c23)O[C@H]2CCN(C)C[C@@H]2N4)ccc1Oc1ccc2c(c1)ncn2C` (relative stereo) [Compound 126, trans-9-methyl-N-(3-methyl-4-((1-methyl-1H-benzo[d]imidazol-5-yl)oxy)phenyl)-7a,8,9,10,11,11a-hexahydro-7H-pyrido[3′,4′:5,6][1,4]oxazino[2,3-f]quinazolin-1-amine], on Ba/F3 ERBB2 YVMA, the GI50 was found to be 140 nM. Further, the IC50 in test [1] was 62.1 nM; in test [2], > 10000 nM.

On to `C=CC(=O)N1CCN2c3nc4c(Nc5ccc(Oc6ccn7ncnc7c6)c(C)c5)ncnc4cc3OC[C@@H]2C1` [Compound 1, (S)-1-(11-((4-([1,2,4]triazolo[1,5-a]pyridin-7-yloxy)-3-methylphenyl)amino)-1,2,4a,5-tetrahydropyrazino[1,2-d]pyrimido[4′,5′:5,6]pyrido[3,2-b][1,4]oxazin-3(4H)-yl)prop-2-en-1-one], for which the GI50 on Ba/F3 ERBB2 YVMA came to 1.6 nM. The IC50 is 5.77 nM in test [1] and 84.7 nM in test [2].

Regarding `C=CC(=O)N1CCN2c3nc4c(Nc5ccc(Oc6ccn7ncnc7c6)c(C)c5)ncnc4cc3OC[C@H]2C1` [Compound 2, (R)-1-(11-((4-([1,2,4]triazolo[1,5-a]pyridin-7-yloxy)-3-methylphenyl)amino)-1,2,4a,5-tetrahydropyrazino[1,2-d]pyrimido[4′,5′:5,6]pyrido[3,2-b][1,4]oxazin-3(4H)-yl)prop-2-en-1-one], the GI50 on Ba/F3 ERBB2 YVMA was 4.54 nM. Further, the IC50 in test [1] worked out at 8.97 nM; in test [2], 421 nM.

Regarding `C=CC(=O)N1CCN2c3cc4c(Nc5ccc(Oc6ccn7ncnc7c6)c(C)c5)ncnc4cc3OC[C@@H]2C1` [Compound 3, (S)-1-(11-((4-([1,2,4]triazolo[1,5-a]pyridin-7-yloxy)-3-methylphenyl)amino)-1,2,4a,5-tetrahydropyrazino[1′,2′:4,5][1,4]oxazino[3,2-g]quinazolin-3(4H)-yl)prop-2-en-1-one], the GI50 on Ba/F3 ERBB2 YVMA worked out at 10.4 nM. Besides, the IC50 in test [1] worked out at 12.8 nM; in test [2], 212 nM.

With `C=CC(=O)N1CCN2c3cc4c(Nc5ccc(Oc6ccn7ncnc7c6)c(C)c5)ncnc4cc3OC[C@H]2C1` [Compound 4, (R)-1-(11-((4-([1,2,4]triazolo[1,5-a]pyridin-7-yloxy)-3-methylphenyl)amino)-1,2,4a,5-tetrahydropyrazino[1′,2′:4,5][1,4]oxazino[3,2-g]quinazolin-3(4H)-yl)prop-2-en-1-one], on Ba/F3 ERBB2 YVMA, the GI50 was determined as 62.4 nM. Moreover, the IC50 is 14.1 nM in test [1] and 1330 nM in test [2].

As to `C=CC(=O)N1CCN2c3ccc4ncnc(Nc5ccc(Oc6ccn7ncnc7c6)c(C)c5)c4c3OC[C@@H]2C1` [Compound 5, (S)-1-(4-((4-([1,2,4]triazolo[1,5-a]pyridin-7-yloxy)-3-methylphenyl)amino)-6a,7,9,10-tetrahydropyrazino[1′,2′:4,5][1,4]oxazino[2,3-f]quinazolin-8(6H)-yl)prop-2-en-1-one], the GI50 at Ba/F3 ERBB2 YVMA was 4.62 nM. In addition, the IC50 in test [1] was determined as 7.89 nM; in test [2] it was 517 nM.

Consider `C=CC(=O)N1CCN2c3ccc4ncnc(Nc5ccc(Oc6ccn7ncnc7c6)c(C)c5)c4c3OC[C@H]2C1` [Compound 6, (R)-1-(4-((4-([1,2,4]triazolo[1,5-a]pyridin-7-yloxy)-3-methylphenyl)amino)-6a,7,9,10-tetrahydropyrazino[1′,2′:4,5][1,4]oxazino[2,3-f]quinazolin-8(6H)-yl)prop-2-en-1-one], for which, at Ba/F3 ERBB2 YVMA, the GI50 was 6.23 nM. In addition, the IC50 came out at 7.19 nM in test [1] and 540 nM in test [2].

Consider `C=CC(=O)N1CCN2c3cc4c(Nc5ccc(Oc6ccc7c(c6)ncn7C)c(C)c5)ncnc4cc3OC[C@H]2C1` [Compound 7, (R)-1-(11-((3-methyl-4-((1-methyl-1H-benzo[d]imidazol-5-yl)oxy)phenyl)amino)-1,2,4a,5-tetrahydropyrazino[1′,2′:4,5][1,4]oxazino[3,2-g]quinazolin-3(4H)-yl)prop-2-en-1-one], for which, on Ba/F3 ERBB2 YVMA, the GI50 was determined as 112 nM. The results for the IC50 in test [1] and in test [2] were 30.7 nM and 1780 nM, respectively.

In the case of `C=CC(=O)N1CCN2c3nc4c(Nc5ccc(Oc6ccc7c(c6)ncn7C)c(C)c5)ncnc4cc3OC[C@H]2C1` [Compound 8, (R)-1-(11-((3-methyl-4-((1-methyl-1H-benzo[d]imidazol-5-yl)oxy)phenyl)amino)-1,2,4a,5-tetrahydropyrazino[1,2-d]pyrimido[4′,5′:5,6]pyrido[3,2-b][1,4]oxazin-3(4H)-yl)prop-2-en-1-one], at Ba/F3 ERBB2 YVMA, the GI50 was 13.3 nM. Further, the concentration for half-maximal inhibition (IC50) in test [1] was found to be 18.1 nM; in test [2], 643 nM.

With `Cc1cc(Nc2ncnc3cc4c(cc23)N2CCN(C(=O)/C=C/CN(C)C)C[C@H]2CO4)ccc1Oc1ccn2ncnc2c1` [Compound 9, (S,E)-1-(11-((4-([1,2,4]triazolo[1,5-a]pyridin-7-yloxy)-3-methylphenyl)amino)-1,2,4a,5-tetrahydropyrazino[1′,2′:4,5][1,4]oxazino[3,2-g]quinazolin-3(4H)-yl)-4-(dimethylamino)but-2-en-1-one], the GI50 at Ba/F3 ERBB2 YVMA turned out to be 41.2 nM. Also, the IC50 worked out at 36.1 nM in test [1] and 1680 nM in test [2].

Turning to `Cc1cc(Nc2ncnc3cc4c(cc23)N2CCN(C(=O)/C=C/CN(C)C)C[C@@H]2CO4)ccc1Oc1ccn2ncnc2c1` [Compound 10, (R,E)-1-(11-((4-([1,2,4]triazolo[1,5-a]pyridin-7-yloxy)-3-methylphenyl)amino)-1,2,4a,5-tetrahydropyrazino[1′,2′:4,5][1,4]oxazino[3,2-g]quinazolin-3(4H)-yl)-4-(dimethylamino)but-2-en-1-one], at Ba/F3 ERBB2 YVMA, the GI50 worked out at 84.9 nM. The IC50 in test [1] was determined as 32.7 nM; in test [2], 3280 nM.

Turning to `COCCN1CCN2c3ccc4ncnc(Nc5ccc(Oc6ccn7ncnc7c6)c(C)c5)c4c3OC[C@H]2C1` [Compound 111, (R)—N-(4-([1,2,4]triazolo[1,5-a]pyridin-7-yloxy)-3-methylphenyl)-8-(2-methoxyethyl)-6,6a,7,8,9,10-hexahydropyrazino[1′,2′:4,5][1,4]oxazino[2,3-f]quinazolin-4-amine], the results for the IC50 in test [1] and in test [2] were 45.7 nM and > 10000 nM, respectively.

With `Cc1cc(Nc2ncnc3ccc4c(c23)O[C@@H]2CCN(C)C[C@@H]2N4C)ccc1Oc1ccc2c(c1)ncn2C` [Compound 123, (7aS,11aR)-7,9-dimethyl-N-(3-methyl-4-((1-methyl-1H-benzo[d]imidazol-5-yl)oxy)phenyl)-7a,8,9,10,11,11a-hexahydro-7H-pyrido[3′,4′:5,6][1,4]oxazino[2,3-f]quinazolin-1-amine], the GI50 at Ba/F3 ERBB2 YVMA stood at 46.4 nM. Besides, the IC50 in test [2] was > 10000 nM.

Turning to `Cc1cc(Nc2ncnc3ccc4c(c23)O[C@@H]2CCN(C)C[C@@H]2N4C)ccc1Oc1ccc2c(c1)ncn2C` [Compound 129, (7aS,11aR)-7,9-dimethyl-N-(3-methyl-4-((1-methyl-1H-benzo[d]imidazol-5-yl)oxy)phenyl)-7a,8,9,10,11,11a-hexahydro-7H-pyrido[3′,4′:5,6][1,4]oxazino[2,3-f]quinazolin-1-amine], the GI50 at Ba/F3 ERBB2 YVMA stood at 111 nM. Besides, the IC50 in test [2] is > 10000 nM.
